Here are results for one substance from patent US20100279941A1, “CD36 MODULATION AND USES THEREOF” (priority 2009, published 2010).

For one experiment, the system named is AMPK. Put plainly: Western blot of left ventricle: phosphorylated AMPK to total AMPK. It counts as in vivo, mice. The method, then:
(§1) Experimental model of IHD: Transient left coronary artery ligation in vivo. Mice were subjected to a transient LCAL surgery as described before, with minor modifications [Tarnayski et al., 2004]. Mice were injected i.p. with buprenorphine (0.05 mg/kg) and placed in an induction chamber with inhalation anesthesia comprised of 3% isoflurane mixed with 100% oxygen. Mice were intubated with a blunt ended 20-gauge catheter into the trachea via the mouth and mechanically ventilated at a tidal volume of 7 ml/kg at 130 respirations/min with a MiniVent™ mouse ventilator (model 845, Harvard Apparatus, Saint-Laurent, QC, Canada). Anesthesia was maintained with 1.5-2% isoflurane and the animals were kept warm using electrical heating pads during the surgical procedure. The chest was opened by a horizontal incision through the skin and muscle layers at the third intercostal space exposing the left side of the heart. […] Visual blanching distal to the coronary occlusion confirmed myocardial ischaemia. Lidocaine (6 mg/kg) was administered i.p. just following occlusion and prior to reperfusion. After 30 minutes, the PE10 tubing was removed allowing reperfusion. The lungs were reinflated and the chest wound closed layer by layer before extubation. […] Hearts were immediately frozen at −80° C. unless otherwise stated.
Western blot analysis. Total ventricular protein lysates were prepared as described previously [Bodart et al., 2002]. Left ventricles were homogenized in PBS containing a protease inhibitor cocktail (Roche Applied Science, Indianapolis, Ind., USA) and 1 mM sodium orthovanadate. Homogenates were incubated for 10 min on ice with an equal volume of lysis buffer (NaCl 300 mM, Tris-HCl 100 mM, 2% Triton X-100, 0.2% SDS, 50 mM NaF, 4 mM EDTA, 1 mM sodium orthovanadate and protein inhibitors, pH=7.5), and centrifuged at 14,000 g for 30 minutes at 4° C. The protein concentration of the su pernatant was determined by the bicinchoninic acid (BCA) protein assay (Pierce Biotechnology, Rockford, Ill., USA). Equal amounts (50 or 100 μg) of protein extracts were separated on 10% SDS-polyacrylamide gels and transferred electrophoretically to polyvinylidene difluoride (PVDF) membranes (Bio-Rad Laboratories, Hercules, Calif., USA) for immunoblotting. […] Antibody binding was detected by enhanced chemiluminescence using an alpha Imager™ (Alpha Innotech Corporation, San Leandro, Calif., USA). Quantification of the digital images obtained was performed using ImageQuant™ 5.2 software (Molecular Dynamics, Sunnyvale, Calif., USA).
Background: Immunoblotting shows a protein as a band on a membrane.

The test system of the next experiment is C57BL/6 mice. Put plainly: Cardiac troponin I (cTnI) in plasma, ELISA. The experiment is classed as in vivo. Conditions: 48 hours post-ischemia; 2 weeks 289 nmol/kg; compared to vehicle. The method, then:
C57BU6 mice were bred in house. Male mice, aged 23 (±1) weeks, were used for experiments. They were fed standard chow (#5075, Charles Rivers, Saint-Constant, Québec, Canada) and water ad libitum, and housed singly during treatment periods (2 weeks). Daily pharmacological treatments with 300 μg/kg (289 nmol/kg) of EP 80317 or 289 nmol/kg of CP-3(IV), 289 nmol/kg of CP-AP-4 or vehicle (0.9% NaCl) were done by subcutaneous (s.c.) injections.
as §1
Cardiac troponin I (cTnI) concentrations in plasma. cTnI plasma levels were assayed using the High Sensitivity Mouse Cardiac Troponin-I ELISA Kit (Life Diagnostics, Inc., West Chester, Pa., Cat. No. 2010-1-HSP), according to the manufacturer's instructions.

For “HAIC-2MeDTrp-DLys-Trp-DPhe-Lys-NH2 [EP 80317]”, in the experiment with AMPK (6 hours reperfusion, CD36^+/+ mice, p<0.01), the “increase of P-AMPK to total AMPK band density ratio” value worked out at 121%. Also, in the experiment with AMPK (6 hours reperfusion, CD36^−/− mice, in words), the “effect on P-AMPK/AMPK ratio” value is listed as “no effect”. For the same substance, in the experiment on AMPK (48 hours reperfusion, CD36^+/+ mice, in words), the P-AMPK/AMPK density ratio entry is listed as “tended to decrease”. The “effect on AMPK phosphoprotein signal” value with AMPK (48 hours reperfusion, genotype not printed in the sentence (FIG. 7D), in words) is given as “no significant effect”. Also, the “reduction of cardiac troponin I (cTnI) levels in plasma” value in the experiment on C57BL/6 mice worked out at 60%.
